Laboratory results as given in US20060122276A1, “Agent for inhibiting membrane virus reproduction, method for the production thereof, pharmaceutical composition and method for inhibiting viral infections” (priority 2003, published 2006).
Where two headings read alike, the source gives them in different places.

Legend:
HIV-1 [1] = conditions: HIV-1
Procedure: Cells Reinoculated humans lymphoblastoid cells MT-4 were used. […] The viability of the cells was determined from the color of a 0.4% solution of trypan blue.
Retrovir (azidothymidin) produced by GlaxoWellcome (Great Britain) was used as positive control.
The Antiviral activity of the preparations was investigated on a model of lymphoblastoid cells in a plastic 24-cell plate. The virus dose was 100 TCD50 (50% tissue cytopathic dose). […] The activity of the preparation was determined from the inhibition of the virus-induced cytopathic action (CPA) in the cell cultures and the virus antigen level in the culture fluid by immunoenzymatic analysis.

HIV-1 [2] = conditions: for Optical density: 6th day, values >0.086 are positive for HIV
[3] = tested on: human embryo fibroblasts (M-21); assay: Cytotoxic action on non-infected M-21 cells; assay type: cell-based; conditions: 500 and 1000 μg/ml; 3-days follow-up
HIV-1 [4] = assay: Treatment of HIV-1-infected patients, blood sample analyses
Procedure: The treatment was carried out in accordance with the following schedule: 20 mg rectal suppositories every three days, one suppository a day during 3 months.

hepatitis C virus [5] = assay: Viability of hepatitis C virus-infected SPEV cell cultures; assay type: cell-based, hepatitis C virus genotype 1b; conditions: 7th day after infecting (control 0)
Procedure: (§1) In our work we used cytopathogenic strain of hepatitis C virus belonging to geno-type 1b. The strain was isolated from the blood serum of a patient suffering from chronic viral hepatitis C, identified as hepatic C virus. Infective doses of HSV equal to 10 TCD of 50/20 μl were used in the investigation.
Cultures of reinoculated porcine embryo kidney cells (SPEV), highly sensitive to the pathogenic action of HSV, obtained from “Narva” Company (Russia) were employed. These cultures were used in the form of a one day monolayer of cells, grown in 24-cell plastic plates.
(§2) For studying the antiviral activity of the preparation, the preparation was introduced in various concentrations into the SPEV cell cultures at the moment of infection and in 24 hours after the infection with hepatitis C virus on the cell in 24-cell plastic culture plates.
The viability of the SPEV cell cultures infected and non-infected with HSV was studied on the 7th day after the infection.

hepatitis C virus [6] = assay: Residual infectious activity (titers) of hepatitis C virus in SPEV culture medium; assay type: cell-based, hepatitis C virus genotype 1b; conditions: for Lowering of virus titers in SPEV cell cultures: administered simultaneously with the virus
Procedure: as §1
For titrating the residual infectiousness of the virus, the same line of porcine embryo kidney cells (SPEV) was used.
as §2
For determining the residual infectious activity of HSV, samples of the culture fluid were taken from the plate cells three days after the treatment of the infected cells with the preparation and titrated on the SPEV cell cultures. The infectious activity of HSV was taken into account from the results of titration on the 6-7th day after the infection, when maximum cytopathogenic action of the virus developed, applying the Rid and Mench formula for calculating the titer of the Hepatitis C virus.

[7] = preparation 2 hrs before infecting
[8] = preparation + virus simultaneously

sodium salt of fullerene-polyamino-caproic acid
CPE/syncytia, % (HIV-1 [1]; [7]): 0%
Number of cells in 1 ml × 1000 (HIV-1 [1]; [7]): 1100 in 1 ml × 1000
CPE/syncytia, % (HIV-1 [1]; [8]): 0%
Number of cells in 1 ml × 1000 (HIV-1 [1]; [8]): 1100 in 1 ml × 1000
Optical density (HIV-1 [2]; 0.5 μg/ml): 2.147
Optical density (HIV-1 [2]; 1.0 μg/ml): 0.165
Optical density (HIV-1 [2]; 10 μg/ml): 0.074
Virus in the culture medium (HIV-1 [2]; 10 μg/ml, HIV-1): not detected
Cytodestructive action on non-infected M-21 cells [3]: has not revealed cytodestructive action
Condition of the patients (HIV-1 [4]; HIV-1-infected patients, 20 mg rectal suppositories, 3 months): improvement
Virus titer (value reciprocal to the dilution of sample that gives 50% CPE or syncytia) (HIV-1 [4]; Patient A, after 1 month, 20 mg rectal suppository every day, before treatment 8): 2
T4-lymphocytes, mm^3 (HIV-1 [4]; Patient A, after 1 month, 20 mg rectal suppository every day, before treatment 59): 355 mm^3
T8-lymphocytes, mm^3 (HIV-1 [4]; Patient A, after 1 month, 20 mg rectal suppository every day, before treatment 63): 455 mm^3
PCR, RNA, copies/ml (HIV-1 [4]; Patient A, after 1 month, 20 mg rectal suppository every day, before treatment 1,200,000): 72,000 copies/ml
Virus titer (value reciprocal to the dilution of sample that gives 50% CPE or syncytia) (HIV-1 [4]; Patient A, after 2 months, 20 mg rectal suppository every day, before treatment 8): 2
T4-lymphocytes, mm^3 (HIV-1 [4]; Patient A, after 2 months, 20 mg rectal suppository every day, before treatment 59): 234 mm^3
T8-lymphocytes, mm^3 (HIV-1 [4]; Patient A, after 2 months, 20 mg rectal suppository every day, before treatment 63): 219 mm^3
PCR, RNA, copies/ml (HIV-1 [4]; Patient A, after 2 months, 20 mg rectal suppository every day, before treatment 1,200,000): 43,000 copies/ml
Virus titer (value reciprocal to the dilution of sample that gives 50% CPE or syncytia) (HIV-1 [4]; Patient A, after 3 months, 20 mg rectal suppository every day, before treatment 8): 0
T4-lymphocytes, mm^3 (HIV-1 [4]; Patient A, after 3 months, 20 mg rectal suppository every day, before treatment 59): 381 mm^3
T8-lymphocytes, mm^3 (HIV-1 [4]; Patient A, after 3 months, 20 mg rectal suppository every day, before treatment 63): 409 mm^3
PCR, RNA, copies/ml (HIV-1 [4]; Patient A, after 3 months, 20 mg rectal suppository every day, before treatment 1,200,000): 44,000 copies/ml
Virus titer (value reciprocal to the dilution of sample that gives 50% CPE or syncytia) (HIV-1 [4]; Patient B, after 1 month, 20 mg rectal suppositories every three days, before treatment 4): 128
T4-lymphocytes, mm^3 (HIV-1 [4]; Patient B, after 1 month, 20 mg rectal suppositories every three days, before treatment 163): 581 mm^3
T8-lymphocytes, mm^3 (HIV-1 [4]; Patient B, after 1 month, 20 mg rectal suppositories every three days, before treatment 257): 464 mm^3
PCR, RNA, copies/ml (HIV-1 [4]; Patient B, after 1 month, 20 mg rectal suppositories every three days, before treatment 140,000): 180,000 copies/ml
Virus titer (value reciprocal to the dilution of sample that gives 50% CPE or syncytia) (HIV-1 [4]; Patient B, after 2 months, 20 mg rectal suppositories every three days, before treatment 4): 2
T4-lymphocytes, mm^3 (HIV-1 [4]; Patient B, after 2 months, 20 mg rectal suppositories every three days, before treatment 163): 329 mm^3
T8-lymphocytes, mm^3 (HIV-1 [4]; Patient B, after 2 months, 20 mg rectal suppositories every three days, before treatment 257): 329 mm^3
PCR, RNA, copies/ml (HIV-1 [4]; Patient B, after 2 months, 20 mg rectal suppositories every three days, before treatment 140,000): 3,500 copies/ml
Virus titer (value reciprocal to the dilution of sample that gives 50% CPE or syncytia) (HIV-1 [4]; Patient B, after 3 months, 20 mg rectal suppositories every three days, before treatment 4): 1
T4-lymphocytes, mm^3 (HIV-1 [4]; Patient B, after 3 months, 20 mg rectal suppositories every three days, before treatment 163): 325 mm^3
T8-lymphocytes, mm^3 (HIV-1 [4]; Patient B, after 3 months, 20 mg rectal suppositories every three days, before treatment 257): 401 mm^3
PCR, RNA, copies/ml (HIV-1 [4]; Patient B, after 3 months, 20 mg rectal suppositories every three days, before treatment 140,000): 2,000 copies/ml
Percentage of survived SPEV cells (hepatitis C virus [5]; 6.25 μg/ml, introduced 24 hours after infecting): 0%
Percentage of survived SPEV cells (hepatitis C virus [5]; 6.25 μg/ml, introduced at the moment of infecting): 0%
Percentage of survived SPEV cells (hepatitis C virus [5]; 12.5 μg/ml, introduced 24 hours after infecting): 0%
Percentage of survived SPEV cells (hepatitis C virus [5]; 12.5 μg/ml, introduced at the moment of infecting): 0%
Percentage of survived SPEV cells (hepatitis C virus [5]; 25 μg/ml, introduced 24 hours after infecting): 0%
Percentage of survived SPEV cells (hepatitis C virus [5]; 25 μg/ml, introduced at the moment of infecting): 0%
Percentage of survived SPEV cells (hepatitis C virus [5]; 50 μg/ml, introduced 24 hours after infecting): 50%
Percentage of survived SPEV cells (hepatitis C virus [5]; 50 μg/ml, introduced at the moment of infecting): 75%
Percentage of survived SPEV cells (hepatitis C virus [5]; 100 μg/ml, introduced 24 hours after infecting): 100%
Percentage of survived SPEV cells (hepatitis C virus [5]; 100 μg/ml, introduced at the moment of infecting): 100%
Titers of hepatitis C virus in medium samples taken on the 3rd day after infecting (hepatitis C virus [6]; 6.25 μg/ml, introduced 24 hours after infecting (control 9.1)): 9.0 1 g TCD 50/20 μl
Titers of hepatitis C virus in medium samples taken on the 3rd day after infecting (hepatitis C virus [6]; 6.25 μg/ml, introduced at the moment of infecting (control 9.5)): 9.7 1 g TCD 50/20 μl
Titers of hepatitis C virus in medium samples taken on the 3rd day after infecting (hepatitis C virus [6]; 12.5 μg/ml, introduced 24 hours after infecting (control 9.1)): 9.9 1 g TCD 50/20 μl
Titers of hepatitis C virus in medium samples taken on the 3rd day after infecting (hepatitis C virus [6]; 12.5 μg/ml, introduced at the moment of infecting (control 9.5)): 9.5 1 g TCD 50/20 μl
Titers of hepatitis C virus in medium samples taken on the 3rd day after infecting (hepatitis C virus [6]; 25 μg/ml, introduced 24 hours after infecting (control 9.1)): 9.5 1 g TCD 50/20 μl
Titers of hepatitis C virus in medium samples taken on the 3rd day after infecting (hepatitis C virus [6]; 25 μg/ml, introduced at the moment of infecting (control 9.5)): 9.3 1 g TCD 50/20 μl
Lowering of virus titers in SPEV cell cultures (hepatitis C virus [6]; 50 μg/ml, listed as preparation): 3.0 lg
Titers of hepatitis C virus in medium samples taken on the 3rd day after infecting (hepatitis C virus [6]; 50 μg/ml, introduced 24 hours after infecting (control 9.1)): 8.5 1 g TCD 50/20 μl
Titers of hepatitis C virus in medium samples taken on the 3rd day after infecting (hepatitis C virus [6]; 50 μg/ml, introduced at the moment of infecting (control 9.5)): 6.2 1 g TCD 50/20 μl
Lowering of virus titers in SPEV cell cultures (hepatitis C virus [6]; 100 μg/ml): 7.4 lg
Titers of hepatitis C virus in medium samples taken on the 3rd day after infecting (hepatitis C virus [6]; 100 μg/ml, introduced 24 hours after infecting (control 9.1)): 3.0 1 g TCD 50/20 μl
Titers of hepatitis C virus in medium samples taken on the 3rd day after infecting (hepatitis C virus [6]; 100 μg/ml, introduced at the moment of infecting (control 9.5)): 2.1 1 g TCD 50/20 μl
